Experimental findings from patent US20170334899A1, “AMINO-SUBSTITUTED ISOTHIAZOLES” (Bayer Pharma Aktiengesellschaft, priority 2014, published 2017) are described below.

The test system of this test is HeLa. The experiment in a line: Proliferation assay (crystal violet), HeLa. Format: cell-based. The following applies: Homo sapiens, HeLa, 96 h, HeLa cells; 4 days incubation; crystal violet staining; read-out: IC50 inhibition of proliferation, HeLa. The gist of the method:
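Seed 1000–5000 cells/well, 10% FCS; 24 h later replace medium and add compound (0.001–10 μM, 0.5% DMSO); incubate 4 d; glutaraldehyde fix, 0.1% crystal violet pH 3.0, elute with 10% acetic acid; A595; 4-parameter IC50.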
Consider `Cc1nsc(Nc2cncc(C(F)(F)F)n2)c1C(=O)Nc1ccc(OC2CCNCC2)nc1` [Example 13, 3-Methyl-N-[6-(piperidin-4-yloxy)pyridin-3-yl]-5-{[6-(trifluoromethyl)pyrazin-2-yl]-amino}-1,2-thiazole-4-carboxamide], for which the IC50 was found to be 10 µM.

With `Cc1nsc(Nc2cncc(C(F)(F)F)n2)c1C(=O)Nc1ccc(OC2CCN(CCF)CC2)nc1` [Example 14, N-(6-{[1-(2-Fluoroethyl)piperidin-4-yl]oxy}pyridin-3-yl)-3-methyl-5-{[6-(trifluoro-methyl)pyrazin-2-yl]amino}-1,2-thiazole-4-carboxamide], the IC50 was 1.5 µM.

Consider `CC(=O)N1CCC(Oc2ccc(NC(=O)c3c(C)nsc3Nc3cncc(C(F)(F)F)n3)cn2)CC1` [Example 17, N-{6-[(1-Acetylpiperidin-4-yl)oxy]pyridin-3-yl}-3-methyl-5-{[6-(trifluoromethyl)-pyrazin-2-yl]amino}-1,2-thiazole-4-carboxamide], for which the IC50 came out at 2.4 µM. Under `Cc1nsc(Nc2cnc3ccccc3n2)c1C(=O)Nc1ccc(OC2CCNCC2)nc1` [Example 19, 3-Methyl-N-[6-(piperidin-4-yloxy)pyridin-3-yl]-5-(quinoxalin-2-ylamino)-1,2-thiazole-4-carboxamide] stands 3.5 µM; under `Cc1nsc(Nc2cnc3ccccc3n2)c1C(=O)Nc1ccc(OC2CCN(CC(F)F)CC2)nc1` [Example 20, N-(6-{[1-(2,2-difluoroethyl)piperidin-4-yl]oxy}pyridin-3-yl)-3-methyl-5-(quinoxalin-2-ylamino)-1,2-thiazole-4-carboxamide], 1.5 µM; under `CCN(CC)CCNC(=O)c1cccc(NC(=O)c2c(C)nsc2Nc2cc(C#N)ccn2)c1` [Example 174, 5-[(4-cyanopyridin-2-yl)amino]-N-(3-{[2-(diethylamino)ethyl]carbamoyl}phenyl)-3-methyl-1,2-thiazole-4-carboxamide], > 10 µM. For `Cc1nsc(Nc2cc(C#N)ccn2)c1C(=O)Nc1cccc(C(=O)NC2CC2)c1` [Example 175, 5-[(4-cyanopyridin-2-yl)amino]-N-[3-(cyclopropylcarbamoyl)phenyl]-3-methyl-1,2-thiazole-4-carboxamide], the IC50 is > 10 µM. For `COC(=O)CCc1cccc(NC(=O)c2c(C)nsc2Nc2ccc(C#N)cn2)c1` [Example 176, methyl 3-{3-[({5-[(5-cyanopyridin-2-yl)amino]-3-methyl-1,2-thiazol-4-yl}carbonyl)amino]phenyl}propanoate], the IC50 was found to be 5 µM. `Cc1nsc(Nc2cc(C#N)ccn2)c1C(=O)Nc1ccc(NC(=O)OC(C)(C)C)cc1` [Example 177, tert-butyl {4-[({5-[(4-cyanopyridin-2-yl)amino]-3-methyl-1,2-thiazol-4-yl}carbonyl)amino]phenyl}carbamate]: the IC50 is > 10 µM. In the case of `Cc1nsc(Nc2cnc3ccccc3n2)c1C(=O)Nc1cccc(NC(=O)OC(C)(C)C)c1` [Example 178, tert-butyl [3-({[3-methyl-5-(quinoxalin-2-ylamino)-1,2-thiazol-4-yl]carbonyl}amino)-phenyl]carbamate], the IC50 was 3.3 µM. Consider `Cc1nsc(Nc2ccc(C#N)cn2)c1C(=O)Nc1cccc(NC(=O)OC(C)(C)C)c1` [Example 179, tert-butyl {3-[({5-[(5-cyanopyridin-2-yl)amino]-3-methyl-1,2-thiazol-4-yl}carbonyl)amino]phenyl}carbamate], for which the IC50 stood at 3.8 µM. Take `Cc1nsc(Nc2ccc(C#N)cn2)c1C(=O)Nc1cccc(N)c1` [Example 180, N-(3-aminophenyl)-5-[(5-cyanopyridin-2-yl)amino]-3-methyl-1,2-thiazole-4-carboxamide]: the IC50 was > 10 µM. Take `Cc1nsc(Nc2cnc3ccccc3n2)c1C(=O)Nc1ccc(C(=O)OC(C)(C)C)cc1` [Example 181, tert-butyl 4-({[3-methyl-5-(quinoxalin-2-ylamino)-1,2-thiazol-4-yl]carbonyl}amino)benzoate]: the IC50 worked out at 0.98 µM. In the case of `Cc1nsc(Nc2cc(C#N)ccn2)c1C(=O)Nc1ccc(C(=O)OC(C)(C)C)cc1` [Example 182, tert-butyl 4-[({5-[(4-cyanopyridin-2-yl)amino]-3-methyl-1,2-thiazol-4-yl}carbonyl)amino]benzoate], the IC50 was determined as 0.66 µM.

On to `Cc1nsc(Nc2cc(C#N)ccn2)c1C(=O)Nc1cccc(NC(=O)C(C)(C)C)c1` [Example 183, 5-[(4-cyanopyridin-2-yl)amino]-N-{3-[(2,2-dimethylpropanoyl)amino]phenyl}-3-methyl-1,2-thiazole-4-carboxamide], for which the IC50 was 5 µM. On to `Cc1nsc(Nc2cnccn2)c1C(=O)Nc1ccc(C(=O)OC(C)(C)C)cc1` [Example 184, tert-butyl 4-({[3-methyl-5-(pyrazin-2-ylamino)-1,2-thiazol-4-yl]carbonyl}amino)benzoate], for which the IC50 is 3.8 µM. Under `Cc1nsc(Nc2cnc3ccccc3n2)c1C(=O)Nc1ccc(NC(=O)C(C)(C)C)cc1` [Example 185, N-{4-[(2,2-dimethylpropanoyl)amino]phenyl}-3-methyl-5-(quinoxalin-2-ylamino)-1,2-thiazole-4-carboxamide] stands > 10 µM; under `Cc1nsc(Nc2cnc3ccccc3n2)c1C(=O)Nc1cccc(NC(=O)C(C)(C)C)c1` [Example 186, N-{3-[(2,2-dimethylpropanoyl)amino]phenyl}-3-methyl-5-(quinoxalin-2-ylamino)-1,2-thiazole-4-carboxamide], 6.5 µM; under `Cc1nsc(Nc2cnc3ccccc3n2)c1C(=O)Nc1ccc(C(=O)O)cc1` [Example 187, 4-({[3-methyl-5-(quinoxalin-2-ylamino)-1,2-thiazol-4-yl]carbonyl}amino)benzoic acid], > 10 µM. As to `Cc1nsc(Nc2cnc3ccccc3n2)c1C(=O)Nc1ccccc1S(C)(=O)=O` [Example 188, 3-methyl-N-[2-(methylsulfonyl)phenyl]-5-(quinoxalin-2-ylamino)-1,2-thiazole-4-carboxamide], the IC50 is > 10 µM. In the case of `Cc1nsc(Nc2cncc(C(F)(F)F)n2)c1C(=O)Nc1ccc(OC2CCCN(C(=O)OC(C)(C)C)C2)nc1` (stereo not drawn) [Example 189, tert-butyl 3-[(5-{[(3-methyl-5-{[6-(trifluoromethyl)pyrazin-2-yl]amino}-1,2-thiazol-4-yl)carbonyl]amino}pyridin-2-yl)oxy]piperidine-1-carboxylate], the IC50 stood at 0.94 µM.

On to `Cc1nsc(Nc2cncc(C(F)(F)F)n2)c1C(=O)Nc1ccc(OCCCNC(=O)OC(C)(C)C)nc1` [Example 190, tert-butyl {3-[(5-{[(3-methyl-5-{[6-(trifluoromethyl)pyrazin-2-yl]amino}-1,2-thiazoL-4-yl)carbonyl]amino}pyridin-2-yl)oxy]propyl}carbamate], for which the IC50 is 0.42 µM. For the compound `Cc1nsc(Nc2cncc(C(F)(F)F)n2)c1C(=O)Nc1ccc(OCCNC(=O)OC(C)(C)C)nc1` [Example 191, tert-butyl {2-[(5-{[(3-methyl-5-{[6-(trifluoromethyl)pyrazin-2-yl]amino}-1,2-thiazol-4-yl)carbonyl]amino}pyridin-2-yl)oxy]ethyl}carbamate], the IC50 was found to be 1.6 µM. `Cc1nsc(Nc2cnc(C(F)(F)F)cn2)c1C(=O)Nc1ccc(OCCNC(=O)OC(C)(C)C)nc1` [Example 192, tert-butyl {2-[(5-{[(3-methyl-5-{[5-(trifluoromethyl)pyrazin-2-yl]amino}-1,2-thiazol-4-yl)carbonyl]amino}pyridin-2-yl)oxy]ethyl}carbamate]: the IC50 came to 1.2 µM.
